Active and inactive are the calls of the source. No cut-off for these calls is given here. Peptide text beside a SMILES is read from it.
Assays:
[1] = (§1) Inhibition of rat alpha6/alpha3 D152A mutant beta4 nAChR expressed in Stage V-VI Xenopus laevis Oocytes assessed as inhibition of acetylcholine-induced current in presence of acetylcholine by electrophysiological recording; assay type: cell-based; conditions: Oocyte
[2] = biological target: Nicotinic acetylcholine receptor alpha6/alpha3/beta4 (Rattus norvegicus) (UniProt P04757+P12392+P43143); test: Inhibition of rat alpha6/alpha3beta4 nAChR expressed in Stage V-VI Xenopus laevis Oocytes assessed as inhibition of acetylcholine-induced current at 10 uM in presence of acetylcholine by electrophysiological recording; assay type: cell-based; conditions: Oocyte
[3] = biological target: Neuronal acetylcholine receptor; alpha3/beta4 (Rattus norvegicus, UniProt P04757+P12392); test: Inhibition of rat alpha3/beta4 nAChR expressed in Stage V-VI Xenopus laevis Oocytes assessed as inhibition of acetylcholine-induced current in presence of acetylcholine by electrophysiological recording; assay type: cell-based, Oocyte
[4] = biological target: Neuronal acetylcholine receptor; alpha4/beta4 (Rattus norvegicus, UniProt P09483+P12392); test: Inhibition of rat alpha4/beta4 nAChR expressed in Stage V-VI Xenopus laevis Oocytes assessed as inhibition of acetylcholine-induced current in presence of acetylcholine by electrophysiological recording; assay type: cell-based, Oocyte
[5] = biological target: Neuronal acetylcholine receptor subunit alpha-7 (Rattus norvegicus, UniProt Q05941); test: Inhibition of rat alpha7 nAChR expressed in Stage V-VI Xenopus laevis Oocytes assessed as inhibition of acetylcholine-induced current in presence of acetylcholine by electrophysiological recording; assay type: cell-based, Oocyte
[6] = biological target: Nicotinic acetylcholine receptor alpha9/alpha10 (Rattus norvegicus, UniProt P43144+Q9JLB5); test: Inhibition of rat alpha9/alpha10 nAChR expressed in Stage V-VI Xenopus laevis Oocytes assessed as inhibition of acetylcholine-induced current in presence of acetylcholine by electrophysiological recording; assay type: cell-based, Oocyte
[7] = biological target: Nicotinic acetylcholine receptor alpha6/alpha3/beta2/beta3 (Rattus norvegicus, UniProt P04757+P12390+P12391+P43143); test: Inhibition of rat alpha6/alpha3beta2beta3 nAChR expressed in Stage V-VI Xenopus laevis Oocytes assessed as inhibition of acetylcholine-induced current in presence of acetylcholine by electrophysiological recording; assay type: cell-based, Oocyte
[8] = biological target: Nicotinic acetylcholine receptor alpha1/beta1/epsilon/delta (Mus musculus, UniProt P02716+P04756+P09690+P20782); test: Inhibition of mouse alpha1/beta1deltaepsilon nAChR expressed in Stage V-VI Xenopus laevis Oocytes assessed as inhibition of acetylcholine-induced current in presence of acetylcholine by electrophysiological recording; assay type: cell-based, Oocyte
[9] = biological target: Neuronal acetylcholine receptor; alpha2/beta2 (Rattus norvegicus) (UniProt P12389+P12390); test: Inhibition of rat alpha2/beta2 nAChR expressed in Stage V-VI Xenopus laevis Oocytes assessed as inhibition of acetylcholine-induced current at 10 uM in presence of acetylcholine by electrophysiological recording relative to control; assay type: cell-based; conditions: Oocyte
[10] = biological target: Neuronal acetylcholine receptor; alpha4/beta2 (Rattus norvegicus) (UniProt P09483+P12390); test: Inhibition of rat alpha4/beta2 nAChR expressed in Stage V-VI Xenopus laevis Oocytes assessed as inhibition of acetylcholine-induced current at 10 uM in presence of acetylcholine by electrophysiological recording relative to control; assay type: cell-based; conditions: Oocyte
[11] = biological target: Nicotinic acetylcholine receptor alpha9/alpha10 (Rattus norvegicus) (UniProt P43144+Q9JLB5); test: Inhibition of rat alpha9/alpha10 nAChR expressed in Stage V-VI Xenopus laevis Oocytes assessed as inhibition of acetylcholine-induced current at 10 uM in presence of acetylcholine by electrophysiological recording relative to control; assay type: cell-based; conditions: Oocyte
Oocyte [12] = test: Inhibition of rat alpha6/alpha3 E195A mutant beta4 nAChR expressed in Stage V-VI Xenopus laevis Oocytes assessed as acetylcholine-induced current response at 100 nM in presence of 100 uM acetylcholine by electrophysiological recording relative to control; assay type: cell-based
Oocyte [13] = test: Inhibition of rat alpha6/alpha3beta4 K57T mutant nAChR expressed in Stage V-VI Xenopus laevis Oocytes assessed as acetylcholine-induced current response at 1 uM in presence of 100 uM acetylcholine by electrophysiological recording relative to control; assay type: cell-based
Oocyte [14] = test: Inhibition of rat alpha6/alpha3beta4 K57T mutant nAChR expressed in Stage V-VI Xenopus laevis Oocytes assessed as acetylcholine-induced current response at 100 uM in presence of 100 uM acetylcholine by electrophysiological recording relative to control; assay type: cell-based
Oocyte [15] = test: as §1, with “E34M” for “D152A”, “current by measuring recovery at 10 uM preincubated with compound for 5 mins followed by washout” for “current”; assay type: cell-based; set-up: scale not given: the % may be the effect or the level left
Oocyte [16] = test: Inhibition of rat alpha6/alpha3 E34M mutant beta4 nAChR expressed in Stage V-VI Xenopus laevis Oocytes assessed as inhibition of acetylcholine-induced current by measuring recovery at 10 uM preincubated with compound for 5 mins followed by measured after 20 mins washout by electrophysiological recording; assay type: cell-based; set-up: scale not given: the % may be the effect or the level left; conditions: time 25.0 min
[17] = Inhibition of rat alpha6/alpha3beta4 E34M mutant nAChR expressed in Stage V-VI Xenopus laevis Oocytes assessed as inhibition of acetylcholine-induced current in presence of acetylcholine by electrophysiological recording; assay type: cell-based; conditions: Oocyte
[18] = Inhibition of rat alpha6/alpha3beta4 K57T mutant nAChR expressed in Stage V-VI Xenopus laevis Oocytes assessed as inhibition of acetylcholine-induced current in presence of acetylcholine by electrophysiological recording; assay type: cell-based; conditions: Oocyte
[19] = Inhibition of rat alpha6/alpha3beta4 D161A mutant nAChR expressed in Stage V-VI Xenopus laevis Oocytes assessed as inhibition of acetylcholine-induced current in presence of acetylcholine by electrophysiological recording; assay type: cell-based; conditions: Oocyte
[20] = Inhibition of rat alpha6/alpha3beta4 I166S mutant nAChR expressed in Stage V-VI Xenopus laevis Oocytes assessed as inhibition of acetylcholine-induced current in presence of acetylcholine by electrophysiological recording; assay type: cell-based; conditions: Oocyte
Rattus norvegicus [21] = species on record: Rattus norvegicus; test: Selectivity index, ratio of IC50 for rat alpha6/alpha3 D152A mutant beta4 nAChR expressed in Stage V-VI Xenopus laevis oocytes to IC50 for rat alpha6/alpha3beta4 nAChR expressed in Stage V-VI Xenopus laevis Oocytes by electrophysiological recording; assay type: cell-based
Rattus norvegicus [22] = species on record: Rattus norvegicus; test: Selectivity index, ratio of IC50 for rat alpha6/alpha3 E195A mutant beta4 nAChR expressed in Stage V-VI Xenopus laevis oocytes to IC50 for rat alpha6/alpha3beta4 nAChR expressed in Stage V-VI Xenopus laevis Oocytes by electrophysiological recording; assay type: cell-based
Rattus norvegicus [23] = species on record: Rattus norvegicus; test: Selectivity index, ratio of IC50 for rat alpha6/alpha3beta4 E34M mutant nAChR expressed in Stage V-VI Xenopus laevis oocytes to IC50 for rat alpha6/alpha3beta4 nAChR expressed in Stage V-VI Xenopus laevis Oocytes by electrophysiological recording; assay type: cell-based
Rattus norvegicus [24] = species on record: Rattus norvegicus; test: Selectivity index, ratio of IC50 for rat alpha6/alpha3beta4 D161A mutant nAChR expressed in Stage V-VI Xenopus laevis oocytes to IC50 for rat alpha6/alpha3beta4 nAChR expressed in Stage V-VI Xenopus laevis Oocytes by electrophysiological recording; assay type: cell-based
Rattus norvegicus [25] = species on record: Rattus norvegicus; test: Selectivity index, ratio of IC50 for rat alpha6/alpha3beta4 1166S mutant nAChR expressed in Stage V-VI Xenopus laevis oocytes to IC50 for rat alpha6/alpha3beta4 nAChR expressed in Stage V-VI Xenopus laevis Oocytes by electrophysiological recording; assay type: cell-based

Chain of Nicotinic acetylcholine receptor alpha1/beta1/epsilon/delta (P04756 whole entry): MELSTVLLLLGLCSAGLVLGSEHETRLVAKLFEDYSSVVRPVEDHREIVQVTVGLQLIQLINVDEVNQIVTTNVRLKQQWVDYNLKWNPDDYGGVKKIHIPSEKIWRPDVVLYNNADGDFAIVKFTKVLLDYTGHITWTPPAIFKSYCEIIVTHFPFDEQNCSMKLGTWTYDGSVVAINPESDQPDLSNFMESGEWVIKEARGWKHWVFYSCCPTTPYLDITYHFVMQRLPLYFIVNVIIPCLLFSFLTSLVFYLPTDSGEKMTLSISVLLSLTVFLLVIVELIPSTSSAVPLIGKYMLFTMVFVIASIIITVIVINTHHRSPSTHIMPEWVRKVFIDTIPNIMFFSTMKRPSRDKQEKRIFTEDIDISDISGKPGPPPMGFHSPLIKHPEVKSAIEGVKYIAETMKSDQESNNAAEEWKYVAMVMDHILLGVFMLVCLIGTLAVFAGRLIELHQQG
Chain of Nicotinic acetylcholine receptor alpha1/beta1/epsilon/delta (P09690 whole entry): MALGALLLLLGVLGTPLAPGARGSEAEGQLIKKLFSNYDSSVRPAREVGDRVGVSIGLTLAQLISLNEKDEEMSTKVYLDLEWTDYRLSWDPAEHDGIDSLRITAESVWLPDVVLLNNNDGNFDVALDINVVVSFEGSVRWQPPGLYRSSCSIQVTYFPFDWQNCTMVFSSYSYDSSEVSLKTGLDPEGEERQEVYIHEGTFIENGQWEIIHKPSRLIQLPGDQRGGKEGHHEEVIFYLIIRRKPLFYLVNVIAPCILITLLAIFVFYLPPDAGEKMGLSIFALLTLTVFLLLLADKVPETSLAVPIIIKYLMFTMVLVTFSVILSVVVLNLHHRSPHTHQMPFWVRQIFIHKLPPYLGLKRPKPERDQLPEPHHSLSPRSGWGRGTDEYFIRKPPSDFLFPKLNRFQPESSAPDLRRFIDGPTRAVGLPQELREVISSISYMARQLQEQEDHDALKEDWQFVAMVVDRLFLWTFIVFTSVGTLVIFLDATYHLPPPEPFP
Chain of Nicotinic acetylcholine receptor alpha1/beta1/epsilon/delta (P02716 whole entry): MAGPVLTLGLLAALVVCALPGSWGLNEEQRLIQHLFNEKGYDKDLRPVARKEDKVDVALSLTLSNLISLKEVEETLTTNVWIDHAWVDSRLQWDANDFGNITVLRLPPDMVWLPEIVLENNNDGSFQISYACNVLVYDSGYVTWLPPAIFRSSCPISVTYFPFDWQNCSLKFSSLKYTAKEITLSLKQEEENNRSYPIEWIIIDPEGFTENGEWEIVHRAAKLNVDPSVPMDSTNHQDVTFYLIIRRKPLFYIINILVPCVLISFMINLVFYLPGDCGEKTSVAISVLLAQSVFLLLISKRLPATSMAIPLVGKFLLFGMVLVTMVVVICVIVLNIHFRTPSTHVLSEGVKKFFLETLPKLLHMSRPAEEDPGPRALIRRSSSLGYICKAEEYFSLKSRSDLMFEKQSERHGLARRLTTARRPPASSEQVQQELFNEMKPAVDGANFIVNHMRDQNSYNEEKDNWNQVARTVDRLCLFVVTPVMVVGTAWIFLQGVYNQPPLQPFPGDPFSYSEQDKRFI
Chain of Nicotinic acetylcholine receptor alpha1/beta1/epsilon/delta (P20782 whole entry): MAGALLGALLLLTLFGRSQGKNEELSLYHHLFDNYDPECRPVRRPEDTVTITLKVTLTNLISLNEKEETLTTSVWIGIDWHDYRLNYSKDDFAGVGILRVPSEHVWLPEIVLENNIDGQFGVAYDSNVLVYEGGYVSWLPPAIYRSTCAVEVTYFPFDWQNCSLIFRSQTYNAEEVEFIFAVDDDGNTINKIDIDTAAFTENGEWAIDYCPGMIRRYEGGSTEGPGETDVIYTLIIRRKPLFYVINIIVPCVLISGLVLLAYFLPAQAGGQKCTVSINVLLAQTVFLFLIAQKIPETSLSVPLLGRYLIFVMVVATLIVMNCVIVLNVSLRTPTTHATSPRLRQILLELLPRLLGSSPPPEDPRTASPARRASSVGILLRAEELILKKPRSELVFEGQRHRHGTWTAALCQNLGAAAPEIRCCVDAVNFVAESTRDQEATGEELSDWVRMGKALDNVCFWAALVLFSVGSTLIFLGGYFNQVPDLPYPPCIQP
Chain of Neuronal acetylcholine receptor subunit alpha-7 (Q05941 whole entry): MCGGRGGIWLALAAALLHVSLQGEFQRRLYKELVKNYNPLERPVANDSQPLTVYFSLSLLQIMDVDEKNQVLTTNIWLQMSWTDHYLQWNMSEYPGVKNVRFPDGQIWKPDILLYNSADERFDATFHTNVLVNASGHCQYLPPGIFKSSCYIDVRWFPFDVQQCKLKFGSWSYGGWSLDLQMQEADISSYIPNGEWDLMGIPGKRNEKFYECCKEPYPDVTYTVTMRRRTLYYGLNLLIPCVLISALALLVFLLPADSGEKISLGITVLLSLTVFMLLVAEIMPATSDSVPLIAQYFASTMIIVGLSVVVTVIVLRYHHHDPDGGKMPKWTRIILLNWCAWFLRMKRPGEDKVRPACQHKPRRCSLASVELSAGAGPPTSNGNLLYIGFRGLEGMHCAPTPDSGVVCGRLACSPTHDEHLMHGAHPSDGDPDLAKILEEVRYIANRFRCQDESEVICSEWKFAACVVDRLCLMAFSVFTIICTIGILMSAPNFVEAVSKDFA
Chain of Nicotinic acetylcholine receptor alpha6/alpha3/beta2/beta3 (P04757 whole entry): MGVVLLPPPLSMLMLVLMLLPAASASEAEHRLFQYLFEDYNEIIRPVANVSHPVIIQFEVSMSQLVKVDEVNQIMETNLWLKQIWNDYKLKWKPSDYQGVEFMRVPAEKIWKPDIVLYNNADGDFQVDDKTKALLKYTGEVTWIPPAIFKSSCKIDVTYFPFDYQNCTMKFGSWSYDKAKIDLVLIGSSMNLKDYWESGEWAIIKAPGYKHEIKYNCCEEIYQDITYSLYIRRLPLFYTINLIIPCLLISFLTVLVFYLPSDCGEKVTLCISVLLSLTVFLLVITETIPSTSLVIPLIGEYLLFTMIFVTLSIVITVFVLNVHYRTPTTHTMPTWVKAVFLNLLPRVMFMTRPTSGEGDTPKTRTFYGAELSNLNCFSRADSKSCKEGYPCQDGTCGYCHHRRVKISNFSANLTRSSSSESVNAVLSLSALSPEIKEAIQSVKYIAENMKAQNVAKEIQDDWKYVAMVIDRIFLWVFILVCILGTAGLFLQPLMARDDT
Chain of Nicotinic acetylcholine receptor alpha6/alpha3/beta2/beta3 (P12390 whole entry): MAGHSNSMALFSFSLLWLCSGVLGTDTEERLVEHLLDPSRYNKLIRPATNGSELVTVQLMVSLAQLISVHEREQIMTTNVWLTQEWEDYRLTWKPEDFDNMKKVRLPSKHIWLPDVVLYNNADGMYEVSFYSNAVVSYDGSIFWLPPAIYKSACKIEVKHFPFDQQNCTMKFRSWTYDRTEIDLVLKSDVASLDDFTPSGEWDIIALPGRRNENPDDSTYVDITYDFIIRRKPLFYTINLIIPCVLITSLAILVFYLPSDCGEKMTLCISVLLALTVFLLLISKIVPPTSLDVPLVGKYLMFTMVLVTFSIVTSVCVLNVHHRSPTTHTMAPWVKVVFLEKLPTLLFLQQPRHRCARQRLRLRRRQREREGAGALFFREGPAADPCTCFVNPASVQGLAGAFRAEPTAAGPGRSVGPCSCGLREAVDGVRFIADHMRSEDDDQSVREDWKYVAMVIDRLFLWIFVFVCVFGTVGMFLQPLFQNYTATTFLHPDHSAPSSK
Chain of Nicotinic acetylcholine receptor alpha6/alpha3/beta2/beta3 (P12391 whole entry): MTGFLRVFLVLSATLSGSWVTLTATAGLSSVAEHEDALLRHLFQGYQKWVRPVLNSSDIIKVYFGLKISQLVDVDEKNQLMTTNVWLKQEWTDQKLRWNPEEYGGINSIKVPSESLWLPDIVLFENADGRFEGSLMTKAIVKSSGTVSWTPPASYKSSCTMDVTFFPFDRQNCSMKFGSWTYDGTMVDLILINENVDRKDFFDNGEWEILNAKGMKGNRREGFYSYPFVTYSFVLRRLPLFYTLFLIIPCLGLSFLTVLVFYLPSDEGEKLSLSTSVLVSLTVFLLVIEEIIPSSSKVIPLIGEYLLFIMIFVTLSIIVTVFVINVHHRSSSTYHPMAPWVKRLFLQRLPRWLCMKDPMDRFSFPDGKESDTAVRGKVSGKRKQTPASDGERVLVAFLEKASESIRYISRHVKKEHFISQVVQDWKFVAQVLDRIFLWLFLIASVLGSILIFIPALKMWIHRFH
Chain of Nicotinic acetylcholine receptor alpha6/alpha3/beta2/beta3 (P43143 whole entry): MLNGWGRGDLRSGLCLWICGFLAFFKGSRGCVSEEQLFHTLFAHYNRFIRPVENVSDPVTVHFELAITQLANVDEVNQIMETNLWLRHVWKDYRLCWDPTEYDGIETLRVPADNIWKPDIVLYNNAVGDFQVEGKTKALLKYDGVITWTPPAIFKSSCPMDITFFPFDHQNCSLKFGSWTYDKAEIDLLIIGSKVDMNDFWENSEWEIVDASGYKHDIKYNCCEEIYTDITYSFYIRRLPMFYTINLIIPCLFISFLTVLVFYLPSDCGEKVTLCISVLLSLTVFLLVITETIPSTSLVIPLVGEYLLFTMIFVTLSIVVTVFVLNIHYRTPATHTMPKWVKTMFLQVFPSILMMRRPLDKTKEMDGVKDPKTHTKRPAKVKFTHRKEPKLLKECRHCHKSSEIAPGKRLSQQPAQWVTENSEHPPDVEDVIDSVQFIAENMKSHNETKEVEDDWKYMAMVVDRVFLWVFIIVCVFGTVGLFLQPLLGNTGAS

For `CC(C)[C@H](NC(=O)[C@@H]1CCCN1C(=O)[C@H](CC(N)=O)NC(=O)[C@H](C)NC(=O)[C@H](CS)NC(=O)[C@H](CS)NC(=O)[C@@H](N)CCCNC(=N)N)C(=O)N[C@@H](CS)C(=O)N[C@@H](CC(N)=O)C(=O)NCC(=O)N[C@@H](CCCCN)C(=O)N[C@@H](Cc1cnc[nH]1)C(=O)N[C@@H](CS)C(N)=O` (H-RCCANPVCNGKHC-NH2), the IC50 [1] was 470 nM, the inhibition [2] was “Active” and the IC50 [3] was > 10000 nM. The IC50 [4] was > 10000 nM, the IC50 [5] was > 10000 nM and the IC50 [6] was > 10000 nM. For the same compound, the IC50 [7] was > 10000 nM, the IC50 [8] was > 10000 nM and the inhibition [9] was < 50%. The inhibition [10] was < 50%, the inhibition [11] was < 50% and the inhibition (Oocyte [12]) was 9.11%. It also gave an inhibition (Oocyte [13]) of 92.7%, an inhibition (Oocyte [14]) of 43.2% and an Activity (Oocyte [15]) of 70%. For the same compound, the Activity (Oocyte [16]) was 66.3%, the IC50 [17] was 18.5 nM and the IC50 [18] was 134 nM. For the same compound, the IC50 [19] was 63 nM, the IC50 [20] was 50.8 nM and the Ratio IC50 (Rattus norvegicus [21]) was 24.7. For the same compound, the Ratio IC50 (Rattus norvegicus [22]) was 50.5, the Ratio IC50 (Rattus norvegicus [23]) was 0.97 and the Ratio IC50 (Rattus norvegicus [24]) was 3.3. For the same compound, the Ratio IC50 (Rattus norvegicus [25]) was 2.7.

Source: ChEMBL document CHEMBL5316324, “Discovery, Characterization, and Engineering of LvIC, an α4/4-Conotoxin That Selectively Blocks Rat α6/α3β4 Nicotinic Acetylcholine Receptors” (J Med Chem, 2023)
